Measured values: patent publication US20210215714A1, “COMPLEMENT ALTERNATIVE PATHWAY-ASSOCIATED NEPHROPATHY BIOMARKERS” (Achillion Pharmaceuticals, Inc., priority 2018, published 2021)
“Also recorded” adds a separate entry of the source.

System: Ba
Assay: Phase 2a study: urinary Ba (MicroVue Ba Enzyme Immunoassay)
Format: in vivo, human
Conditions: for Urine Ba / Ba/ALB / Ba/Cr: 200 mg TID; for Ba/ALB GEOMEAN / Ba/ALB MEAN / Ba/Cr GEOMEAN / Ba/Cr MEAN / Urine Ba MEAN / Urine Ba GEOMEAN: patients A-F

## CC(=O)c1nn(CC(=O)N2C[C@H](F)C[C@H]2C(=O)Nc2cccc(Br)n2)c2ccc(-c3cnc(C)nc3)cc12 [Compound 1, (2S,4R)-1-(2-(3-acetyl-5-(2-methylpyrimidin-5-yl)-1H-indazol-1-yl)acetyl)-N-(6-bromopyridin-2-yl)-4-fluoropyrrolidine-2-carboxamide]
Patient D, Day 21 Taper
  Urine Ba: 18.6 ng/mL
Patient D, Follow-Up Day 24
  Ba/ALB: 14.9 ng/mg
  Ba/Cr: 4.2 µg/mmol
  Urine Ba: 28.7 ng/mL
Patient D, Follow-Up Day 28
  Ba/ALB: 10.8 ng/mg
  Ba/Cr: 6.2 µg/mmol
  Urine Ba: 30.0 ng/mL
Patient D, Follow-Up Day 49
  Ba/ALB: 3.8 ng/mg
  Ba/Cr: 2.4 µg/mmol
  Urine Ba: 9.4 ng/mL
Patient D, Screen
  Ba/ALB: 19.2 ng/mg
  Ba/Cr: 11.1 µg/mmol
  Urine Ba: 84.4 ng/mL
Patient E, Day 1/0 Hour
  Ba/ALB: 33.5 ng/mg
  Ba/Cr: 14.2 µg/mmol
  Urine Ba: 252 ng/mL
Patient E, Day 4
  Ba/ALB: 14.7 ng/mg
  Ba/Cr: 6.2 µg/mmol
  Urine Ba: 129 ng/mL
Patient E, Day 7/0 Hour
  Ba/ALB: 17.3 ng/mg
  Ba/Cr: 9.2 µg/mmol
  Urine Ba: 142 ng/mL
Patient E, Day 10
  Ba/ALB: 12.8 ng/mg
  Ba/Cr: 8.0 µg/mmol
  Urine Ba: 106 ng/mL
Patient E, Day 14
  Ba/ALB: 6.9 ng/mg
  Ba/Cr: 1.8 µg/mmol
  Urine Ba: 41 ng/mL
Patient E, Day 15 Taper
  Ba/ALB: 3.6 ng/mg
  Ba/Cr: 1.2 µg/mmol
  Urine Ba: 11 ng/mL
Patient E, Day 16 Taper
  Ba/ALB: 7.2 ng/mg
  Ba/Cr: 2.0 µg/mmol
  Urine Ba: 20 ng/mL
Patient E, Day 17 Taper
  Ba/ALB: 12.7 ng/mg
  Ba/Cr: 6.0 µg/mmol
  Urine Ba: 47 ng/mL
Patient E, Day 21 Taper
  Ba/ALB: 21.6 ng/mg
  Ba/Cr: 5.5 µg/mmol
  Urine Ba: 42 ng/mL
Patient E, Follow-Up Day 24
  Ba/ALB: 41.2 ng/mg
  Ba/Cr: 12.5 µg/mmol
  Urine Ba: 156 ng/mL
Patient E, Follow-Up Day 28
  Ba/ALB: 46.1 ng/mg
  Ba/Cr: 14.1 µg/mmol
  Urine Ba: 234 ng/mL
Patient E, Follow-Up Day 49
  Ba/ALB: 40.0 ng/mg
  Ba/Cr: 13.1 µg/mmol
  Urine Ba: 207 ng/mL
Patient F, Day 1/0 Hour
  Ba/ALB: 25.9 ng/mg
  Ba/Cr: 7.6 µg/mmol
  Urine Ba: 74.9 ng/mL
Patient F, Day 4
  Ba/ALB: 7.6 ng/mg
  Ba/Cr: 1.2 µg/mmol
  Urine Ba: 5.7 ng/mL
Patient F, Day 7/0 Hour
  Ba/ALB: 5.7 ng/mg
  Ba/Cr: 0.5 µg/mmol
  Urine Ba: 2.1 ng/mL
Patient F, Day 10
  Urine Ba: 2.1 ng/mL
Patient F, Day 14
  Ba/ALB: 5.8 ng/mg
  Ba/Cr: 1.1 µg/mmol
  Urine Ba: 9.8 ng/mL
Patient F, Day 15 Taper
  Ba/ALB: 0.6 ng/mg
  Ba/Cr: 0.5 µg/mmol
  Urine Ba: 2.8 ng/mL
Patient F, Day 16 Taper
  Ba/ALB: 2.6 ng/mg
  Ba/Cr: 0.6 µg/mmol
  Urine Ba: 2.2 ng/mL
Patient F, Day 17 Taper
  Ba/ALB: 1.6 ng/mg
  Ba/Cr: 0.7 µg/mmol
  Urine Ba: 6.9 ng/mL
Patient F, Day 21 Taper
  Ba/ALB: 1.5 ng/mg
  Ba/Cr: 0.5 µg/mmol
  Urine Ba: 6.6 ng/mL
Patient F, Follow-Up Day 24
  Ba/ALB: 1.5 ng/mg
  Ba/Cr: 0.4 µg/mmol
  Urine Ba: 2.2 ng/mL
Patient F, Follow-Up Day 28
  Ba/ALB: 2.5 ng/mg
  Ba/Cr: 0.6 µg/mmol
  Urine Ba: 2.8 ng/mL
Patient F, Follow-Up Day 49
  Ba/Cr: 8.2 µg/mmol
  Urine Ba: 44.4 ng/mL
Day 1/0 Hour
  Ba/ALB GEOMEAN: 22.6 ng/mg
  Ba/ALB MEAN: 53.4 ng/mg
  Ba/Cr GEOMEAN: 5.7 µg/mmol
  Ba/Cr MEAN: 26.7 µg/mmol
  Urine Ba MEAN: 197 ng/mL
Day 4
  Ba/ALB GEOMEAN: 7.8 ng/mg
  Ba/ALB MEAN: 13.8 ng/mg
  Ba/Cr GEOMEAN: 1.4 µg/mmol
  Ba/Cr MEAN: 3.8 µg/mmol
  Urine Ba GEOMEAN: 9.1 ng/mL
  Urine Ba MEAN: 52 ng/mL
Day 7/0 Hour
  Ba/ALB GEOMEAN: 8.9 ng/mg
  Ba/ALB MEAN: 13.4 ng/mg
  Ba/Cr GEOMEAN: 1.5 µg/mmol
  Ba/Cr MEAN: 4.0 µg/mmol
  Urine Ba GEOMEAN: 7.9 ng/mL
  Urine Ba MEAN: 51 ng/mL
Day 10
  Urine Ba GEOMEAN: 5.0 ng/mL
  Urine Ba MEAN: 28 ng/mL
Day 15 Taper
  Ba/ALB GEOMEAN: 4.9 ng/mg
  Ba/ALB MEAN: 13.4 ng/mg
  Ba/Cr GEOMEAN: 1.2 µg/mmol
  Ba/Cr MEAN: 4.1 µg/mmol
  Urine Ba GEOMEAN: 6.8 ng/mL
  Urine Ba MEAN: 41 ng/mL
Day 17 Taper
  Ba/ALB GEOMEAN: 6.9 ng/mg
  Ba/ALB MEAN: 15.4 ng/mg
  Ba/Cr GEOMEAN: 1.6 µg/mmol
  Ba/Cr MEAN: 4.2 µg/mmol
  Urine Ba GEOMEAN: 9.5 ng/mL
  Urine Ba MEAN: 41 ng/mL
Day 21 Taper
  Ba/ALB MEAN: 24.5 ng/mg
  Ba/Cr GEOMEAN: 2.6 µg/mmol
  Ba/Cr MEAN: 6.0 µg/mmol
  Urine Ba GEOMEAN: 17.2 ng/mL
  Urine Ba MEAN: 46 ng/mL
Follow-Up Day 24
  Ba/ALB MEAN: 38.5 ng/mg
  Ba/Cr GEOMEAN: 3.0 µg/mmol
  Ba/Cr MEAN: 11.6 µg/mmol
  Urine Ba GEOMEAN: 18.4 ng/mL
  Urine Ba MEAN: 92 ng/mL
Follow-Up Day 28
  Ba/ALB GEOMEAN: 17.4 ng/mg
  Ba/ALB MEAN: 34.3 ng/mg
  Ba/Cr GEOMEAN: 3.8 µg/mmol
  Ba/Cr MEAN: 9.3 µg/mmol
  Urine Ba GEOMEAN: 24.5 ng/mL
  Urine Ba MEAN: 90 ng/mL
Follow-Up Day 49
  Ba/ALB GEOMEAN: 20.7 ng/mg
  Ba/ALB MEAN: 143.0 ng/mg
  Ba/Cr GEOMEAN: 3.9 µg/mmol
  Ba/Cr MEAN: 22.6 µg/mmol
  Urine Ba GEOMEAN: 27.2 ng/mL
  Urine Ba MEAN: 334 ng/mL
two-week treatment
  Urinary Ba levels: reduced significantly; also recorded: reduced in all patients
  Urinary Ba levels normalized to urinary creatinine or albumin: reduced significantly
